# Source: paper PMC6757289, “Design and Characterization of SGK3-PROTAC1, an Isoform Specific SGK3 Kinase PROTAC Degrader” (ACS Chemical Biology, 2019)
# Where a SMILES comes first, the peptide text is derived from it. The star is where a group is joined. Cbz = O=C(OCc1ccccc1)*
# How the values were obtained:
# SGK3 [1] = target: T1, SGK3 (Homo sapiens, UniProt Q96BR1); test: IC50 determination, biochemical kinase assay; settings: for IC50: not in the presence of VHL
# T1 sequence (Q96BR1 1-496): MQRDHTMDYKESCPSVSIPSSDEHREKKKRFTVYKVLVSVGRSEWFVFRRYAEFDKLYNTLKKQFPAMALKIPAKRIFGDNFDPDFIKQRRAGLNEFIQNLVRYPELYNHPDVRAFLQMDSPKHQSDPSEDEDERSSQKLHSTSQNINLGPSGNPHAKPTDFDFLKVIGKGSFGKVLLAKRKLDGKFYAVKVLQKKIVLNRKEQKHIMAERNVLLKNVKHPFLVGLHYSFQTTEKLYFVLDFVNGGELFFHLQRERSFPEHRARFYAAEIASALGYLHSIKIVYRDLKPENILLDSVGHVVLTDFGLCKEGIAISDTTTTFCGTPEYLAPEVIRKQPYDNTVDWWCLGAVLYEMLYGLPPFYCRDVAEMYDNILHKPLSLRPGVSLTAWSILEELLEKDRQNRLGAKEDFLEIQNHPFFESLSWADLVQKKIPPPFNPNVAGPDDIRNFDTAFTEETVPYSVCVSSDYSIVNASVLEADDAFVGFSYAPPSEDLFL
# Description: (§1) IC50 determination was performed at the MRC PPU International Centre for Protein Kinase Profiling, according to the protocol previously described[47],[48]
# S6K1 = S6K1 (Homo sapiens, UniProt P23443, T412E); test: IC50 determination, biochemical kinase assay; settings: not in the presence of VHL
# Description: as §1
# SGK1 = target: T2, SGK1 (Homo sapiens, UniProt O00141, S422D); test: IC50 determination, biochemical kinase assay; settings: not in the presence of VHL
# T2 sequence (O00141 60-431 S422D limits assumed): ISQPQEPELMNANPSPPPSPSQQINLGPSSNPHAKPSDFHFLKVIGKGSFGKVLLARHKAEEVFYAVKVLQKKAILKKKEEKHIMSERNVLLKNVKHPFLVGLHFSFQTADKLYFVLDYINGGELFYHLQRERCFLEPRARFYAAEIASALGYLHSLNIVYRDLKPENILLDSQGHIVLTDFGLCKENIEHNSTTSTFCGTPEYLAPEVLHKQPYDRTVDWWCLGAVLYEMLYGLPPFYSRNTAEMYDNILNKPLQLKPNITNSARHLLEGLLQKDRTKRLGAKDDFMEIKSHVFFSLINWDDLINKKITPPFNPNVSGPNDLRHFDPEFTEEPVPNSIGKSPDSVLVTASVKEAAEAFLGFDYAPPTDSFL
# CAMA-1 cells = test: Cell growth (confluency, Incucyte S3); assay type: cell-based; settings: CAMA-1, 1 μM
# Description: (§2) Figure 6 SGK3-PROTAC1-mediated degradation of SGK3 further inhibiting the growth of cancer cell lines treated with PI3K-Akt pathway inhibitors. CAMA-1 (A, C) and ZR-75-1 (B, D) were treated with compounds as indicated either as monotherapy or in combination, and confluency was measured on the Incucyte S3 every 4 h for up to 4 weeks.
# (§3) For growth assays, ZR-75-1 cells were seeded in 96-well plates at a density of 6000 cells/well and left to adhere overnight. Cells were then treated with compounds as described in the figure legends and imaged every 4 h on the Incucyte S3 (Essen Bioscience) for up to 4 weeks to give a measure of cell confluency. Media were refreshed every 4–5 days.
# (§4) Supplementary Figure S3. SGK3-PROTAC compounds have no effect on cell growth. CAMA-1 and ZR-75-1
# (§5) confluency was m easured every 4 h on Incucyte S3.
# (§6) (1 picture or pasted object on this page, not shown here)
# ZR-75-1 cells = test: Cell growth (confluency, Incucyte S3); assay type: cell-based; settings: ZR-75-1, 1 μM
# Description: as §2, §3, §4, §5, §6
# SGK3 [2] = target: T1, SGK3; test: SGK3 degradation in HEK293 cells, immunoblot; assay type: cell-based; design: reduced endogenous SGK isoform or S6K1 expression when administered to HEK293 cells for 48 h; endogenous in cells; host or cells: HEK293; settings: for effect on SGK3-PROTAC1-mediated degradation of SGK3: HEK293, pretreatment, 6 h 0.3 µM SGK3-PROTAC1; for effect on DAT1-induced degradation of SGK3: HEK293, MLN4924 3 μM, MG132 50 μM
# Description: Figure 1 Design and cellular activity of first generation SGK3 PROTACs. (A) Structure of compound 14H, previously published by Sanofi as an inhibitor of SGK3. (B) Starting material for SGK PROTACs. […] (C) Structures of first generation SGK PROTACs. SGK and E3 ligase targeting motifs were joined by a 3xPEG linker to produce the PROTACs. (D) HEK293 cells were treated for 48 h with increasing concentrations of each PROTAC compound from 0.1 nM to 10 μM. Cell lysates were subjected to immunoblot analysis with the indicated antibodies, and SGK3 protein levels were quantified in Image Studio Lite software (Licor).
# Figure 2 Design and cellular evaluation of second and third generation SGK PROTACs. (A) Chemical structure of compounds DAT5–12, expanding upon DAT1. (B) Chemical structure of cisSGK3-PROTAC1. (C) HEK293 cells were treated for 48 h with increasing concentrations of each PROTAC compound from 1 nM to 10 μM. Cell lysates were subjected to immunoblot analysis with the indicated antibodies, and SGK3 protein levels quantified in Image Studio Lite software. (D) HEK293 cells were treated for 48 h with increasing concentrations of each PROTAC compound from 1 nM to 10 μM. Cell lysates were subjected to immunoblot analysis with the indicated antibodies, and SGK3 and S6K1 protein levels were quantified in Image Studio Lite software. TEXT PRINTED IN THE PICTURE: (C) DAT1: % SGK3: 100 (48h Treatment (μM): 0); % SGK3: 94 (48h Treatment (μM): 0.001); % SGK3: 82 (48h Treatment (μM): 0.01); % SGK3: 70 (48h Treatment (μM): 0.1); % SGK3: 52 (48h Treatment (μM): 1); % SGK3: 31 (48h Treatment (μM): 10) | (C) DAT5: % SGK3: 100 (48h Treatment (μM): 0); % SGK3: 104 (48h Treatment (μM): 0.001); % SGK3: 82 (48h Treatment (μM): 0.01); % SGK3: 92 (48h Treatment (μM): 0.1); % SGK3: 73 (48h Treatment (μM): 1); % SGK3: 36 (48h Treatment (μM): 10) | (C) DAT6: % SGK3: 100 (48h Treatment (μM): 0); % SGK3: 105 (48h Treatment (μM): 0.001); % SGK3: 90 (48h Treatment (μM): 0.01); % SGK3: 71 (48h Treatment (μM): 0.1); % SGK3: 44 (48h Treatment (μM): 1); % SGK3: 20 (48h Treatment (μM): 10) | (C) DAT7: % SGK3: 100 (48h Treatment (μM): 0); % SGK3: 77 (48h Treatment (μM): 0.001); % SGK3: 80 (48h Treatment (μM): 0.01); % SGK3: 95 (48h Treatment (μM): 0.1); % SGK3: 37 (48h Treatment (μM): 1); % SGK3: 29 (48h Treatment (μM): 10) | (D) DAT8: % SGK3: 100 (48h Treatment (μM): 0); % SGK3: 97 (48h Treatment (μM): 0.001); % SGK3: 107 (48h Treatment (μM): 0.01); % SGK3: 34 (48h Treatment (μM): 0.1); % SGK3: 24 (48h Treatment (μM): 1); % SGK3: 19 (48h Treatment (μM): 10) | (D) DAT9: % SGK3: 100 (48h Treatment (μM): 0); % SGK3: 105 (48h Treatment (μM): 0.001); % SGK3: 71 (48h Treatment (μM): 0.01); % SGK3: 40 (48h Treatment (μM): 0.1); % SGK3: 11 (48h Treatment (μM): 1); % SGK3: 12 (48h Treatment (μM): 10) | (D) DAT10: % SGK3: 100 (48h Treatment (μM): 0); % SGK3: 100 (48h Treatment (μM): 0.001); % SGK3: 76 (48h Treatment (μM): 0.01); % SGK3: 54 (48h Treatment (μM): 0.1); % SGK3: 11 (48h Treatment (μM): 1); % SGK3: 9 (48h Treatment (μM): 10) | (D) DAT11: % SGK3: 100 (48h Treatment (μM): 0); % SGK3: 96 (48h Treatment (μM): 0.001); % SGK3: 97 (48h Treatment (μM): 0.01); % SGK3: 41 (48h Treatment (μM): 0.1); % SGK3: 32 (48h Treatment (μM): 1); % SGK3: 29 (48h Treatment (μM): 10) | (D) DAT12: % SGK3: 100 (48h Treatment (μM): 0); % SGK3: 106 (48h Treatment (μM): 0.001); % SGK3: 84 (48h Treatment (μM): 0.01); % SGK3: 79 (48h Treatment (μM): 0.1); % SGK3: 32 (48h Treatment (μM): 1); % SGK3: 29 (48h Treatment (μM): 10) DOUBTS OF THE COPYIST ABOUT THIS PICTURE: All % SGK3 values are quantification numbers printed under immunoblot lanes; each was assigned to a concentration by lane position / DAT9 and DAT10, % SGK3: the first numbers are printed run together ('100105', '100100') and were split as 100 | 105 and 100 | 100
# Figure 3 Characterization of cellular activities of SGK3-PROTAC1 and cisSGK3-PROTAC1. […]
# Chain of S6K1 (P23443 1-421 T412E limits assumed): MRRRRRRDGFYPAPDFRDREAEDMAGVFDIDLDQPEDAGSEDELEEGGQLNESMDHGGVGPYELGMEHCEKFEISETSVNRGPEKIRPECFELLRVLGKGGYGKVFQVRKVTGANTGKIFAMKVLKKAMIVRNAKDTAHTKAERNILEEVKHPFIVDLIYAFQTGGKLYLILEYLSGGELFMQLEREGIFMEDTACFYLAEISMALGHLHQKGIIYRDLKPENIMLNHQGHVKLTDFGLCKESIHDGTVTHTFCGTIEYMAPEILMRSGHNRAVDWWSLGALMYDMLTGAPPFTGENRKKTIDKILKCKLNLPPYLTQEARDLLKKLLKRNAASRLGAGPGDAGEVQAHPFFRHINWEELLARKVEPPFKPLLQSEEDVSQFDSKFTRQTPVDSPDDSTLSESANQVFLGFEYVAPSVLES
smiles,measurement,setting,value
COc1ccc(Cl)c(S(=O)(=O)Nc2ccc(-c3nc(OC[C@H]4CN(CCOCCOCCOCC(=O)NCCNc5cccc6c5C(=O)N(C5CCC(=O)NC5=O)C6=O)CCO4)c4c(C)n[nH]c4n3)cc2)c1 (some centres unmarked) [DAT4],IC50,SGK3 [1],540 nM
same,IC50,S6K1,190 nM
same,IC50,SGK1,600 nM
Cc1ccc(F)c(S(=O)(=O)Nc2ccc(-c3nc(OC[C@H]4CN(CCOCCOCCOCC(=O)NCCNc5cccc6c5C(=O)N(C5CCC(=O)NC5=O)C6=O)CCO4)c4cn[nH]c4n3)cc2)c1 (some centres unmarked) [DAT3],IC50,SGK3 [1],640 nM
same,IC50,S6K1,240 nM
same,IC50,SGK1,1000 nM
"CS(=O)(=O)N1CCN(Cc2cc3nc(-c4cccc5[nH]ncc45)nc(N4CCOCC4)c3s2)CC1 [GDC0941, 2-(1H-Indazol-4-Yl)-6-(4-Methanesulfonyl-Piperazin-1-Ylmethyl)-4-Morpholin-4-Yl-t Hieno[3,2-d]Pyrimidine, reference compound]","growth, PI3K or Akt inhibitor monotherapy",CAMA-1 cells,substantially reduced growth
same,"growth, PI3K or Akt inhibitor monotherapy",ZR-75-1 cells,substantially reduced growth
"CC(C)C[C@@H](C=O)NC(=O)[C@H](CC(C)C)NC(=O)[C@H](CC(C)C)NC(=O)OCc1ccccc1 [MG132, reference compound] (Cbz-Leu-Leu-Leu-aldehyde)",effect on SGK3-PROTAC1-mediated degradation of SGK3,SGK3 [2],prevented
same,effect on DAT1-induced degradation of SGK3,SGK3 [2],blocked
Cc1ccc(F)c(S(=O)(=O)Nc2ccc(-c3nc(OC[C@H]4CN(CCCCCCOCCOCCOCCOCC(=O)N[C@H](C(=O)N5C[C@H](O)C[C@H]5C(=O)NCc5ccc(-c6scnc6C)cc5)C(C)(C)C)CCO4)c4cn[nH]c4n3)cc2)c1 [DAT9],remaining activity at 0.001 µM,"SGK3 [2]; HEK293, 48 h, 0.001 μM, Figure 2",105%
same,remaining activity at 0.01 µM,"SGK3 [2]; HEK293, 48 h, 0.01 μM, Figure 2",71%
same,remaining activity at 0.1 µM,"SGK3 [2]; HEK293, 48 h, 0.1 μM, Figure 2",40%
same,remaining activity at 1 µM,"SGK3 [2]; HEK293, 48 h, 1 μM, Figure 2",11%
same,remaining activity at 10 µM,"SGK3 [2]; HEK293, 48 h, 10 μM, Figure 2",12%
same,IC50,SGK3 [1],1790 nM
same,IC50,S6K1,4530 nM
same,IC50,SGK1,8990 nM
COc1ccc(Cl)c(S(=O)(=O)Nc2ccc(-c3nc(OC[C@H]4CN(CCOCCOCCOCC(=O)N[C@H](C(=O)N5C[C@H](O)C[C@H]5C(=O)NCc5ccc(-c6scnc6C)cc5)C(C)(C)C)CCO4)c4c(C)n[nH]c4n3)cc2)c1 [DAT2],fold more potent inhibition of SGK1 and SGK3 than DAT1,SGK3 [1]; SGK1 and SGK3,2–4 fold
same,IC50,SGK3 [1],190 nM
same,IC50,S6K1,180 nM
same,IC50,SGK1,400 nM
"NC1(C(=O)N[C@@H](CCO)c2ccc(Cl)cc2)CCN(c2ncnc3[nH]ccc23)CC1 [AZD5363, reference compound]","growth, PI3K or Akt inhibitor monotherapy",CAMA-1 cells,substantially reduced growth
same,"growth, PI3K or Akt inhibitor monotherapy",ZR-75-1 cells,substantially reduced growth
"NS(=O)(=O)OC[C@@H]1C[C@@H](n2ccc3c(N[C@H]4CCc5ccccc54)ncnc32)C[C@@H]1O [MLN4924, reference compound]",effect on SGK3-PROTAC1-mediated degradation of SGK3,SGK3 [2],prevented
same,effect on DAT1-induced degradation of SGK3,SGK3 [2],blocked
